In ChEMBL document CHEMBL2074116, “Functional analysis of rat renal organic anion transporter OAT-K1: bidirectional methotrexate transport in apical membrane” (FEBS Lett, 1999):

Tests used:
Assay type in all cases: functional, cell-based
[1] = target: T1, Solute carrier organic anion transporter family member 1A3 (Rattus norvegicus, UniProt P70502); test: TP_TRANSPORTER: uptake in Xenopus laevis oocytes; settings: oocyte
T1 sequence (P70502 whole entry): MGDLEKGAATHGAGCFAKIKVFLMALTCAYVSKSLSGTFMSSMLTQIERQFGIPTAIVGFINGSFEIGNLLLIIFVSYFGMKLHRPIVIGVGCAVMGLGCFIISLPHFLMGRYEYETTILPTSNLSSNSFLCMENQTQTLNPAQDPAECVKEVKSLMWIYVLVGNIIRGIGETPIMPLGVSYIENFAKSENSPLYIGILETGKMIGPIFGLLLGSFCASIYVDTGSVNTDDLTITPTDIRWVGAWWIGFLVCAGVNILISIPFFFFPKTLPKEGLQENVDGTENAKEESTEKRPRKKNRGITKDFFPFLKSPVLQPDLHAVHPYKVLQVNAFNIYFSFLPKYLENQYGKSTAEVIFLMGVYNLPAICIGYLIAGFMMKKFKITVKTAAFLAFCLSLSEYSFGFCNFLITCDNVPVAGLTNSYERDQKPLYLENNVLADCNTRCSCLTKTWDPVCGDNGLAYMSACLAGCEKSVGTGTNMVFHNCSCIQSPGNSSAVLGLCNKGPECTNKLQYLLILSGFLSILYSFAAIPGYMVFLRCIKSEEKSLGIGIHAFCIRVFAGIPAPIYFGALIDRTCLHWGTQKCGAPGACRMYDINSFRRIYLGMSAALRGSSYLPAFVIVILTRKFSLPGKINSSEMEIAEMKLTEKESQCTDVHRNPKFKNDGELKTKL

[2] = target: T1, Solute carrier organic anion transporter family member 1A3; test: TP_TRANSPORTER: inhibition of MTX uptake (MTX: 0.01 uM, PAH: 100 uM) in OAT-K1-expressing MDCK cells; settings: dog
[3] = substrate: CN(Cc1cnc2nc(N)nc(N)c2n1)c1ccc(C(=O)N[C@@H](CCC(=O)O)C(=O)O)cc1; test: TP_TRANSPORTER: uptake in OAT-K1-expressing MDCK cells

## Nc1ccc(C(=O)NCC(=O)O)cc1 [AMINOHIPPURIC ACID]
[1]
  Activity: is not a substrate [-]
[2]
  Activity: inhibitor [(at a rough estimate) 55 % of control]

B1: Solute carrier organic anion transporter family member 1A3 (Rattus norvegicus) (protein)
chain: T1 sequence (P70502 whole entry)
[3]
  Km: 2.1 µM
